Results published in PubChem BioAssay (NCI).
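Tested at 5 concentrations; 48 h exposure; 96-well plates; endpoints linearly interpolated, else capped at highest concentration. At the TGI there is no net growth.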

system: HCT-15 colon; assay: NCI anticancer screen, dose series, 48 h

| Compound | TGI [µM] |
| --- | --- |
| Cc1nnc2n1N=C(c1ccccc1)/C(=C/c1ccc(-c3ccc(Cl)cc3)o1)S2 | 31.3 |
| COC1(c2ccc(Cl)cc2)SC=C(C)n2c1noc2=O (stereo not given) | > 100 |
| N=C(N)c1ccc(/C=C/c2ccc(C(=N)N)cc2)cc1 | > 100 |
| NC1CC(=O)c2cscc21 (stereo not given) | 88.5 |
| CC(=O)Oc1c(C)c2c(c3ncccc13)OC(C)C2 (stereo not given) | 24.5 |
| COc1c2c(cc3c1C(=O)c1c(O)cccc1C3=O)CC(O)CC2 (stereo not given) | > 100 |

system: SF-295 CNS; assay: NCI anticancer screen, dose series, 48 h

| Compound | TGI [µM] |
| --- | --- |
| Cc1ccc(N=N/C(=N/NC(=O)c2cc(Cl)ccc2O)c2ccc(N(CCC#N)CCC#N)cc2C)cc1 | 83.3 |
| Cc1ccc2c(c1)[nH]c(=S)n2C=C(C(N)=O)C(N)=O | > 100 |
| O=C1C=Cc2c(Br)sc(Br)c21 | > 100 |
| CN(C)CCNc1ccc([N+](=O)[O-])c2sc3ccccc3c(=O)c12 | > 100 |
| CN1Cc2ccccc2S(=O)(=O)n2cccc2C1=O | > 100 |
| O=C(C1OC1c1ccc(Cl)cc1)C12CC3CC(CC(C3)C1)C2 (stereo not given) | 58.6 |
| NC1c2c(Br)sc(N3CCCC3)c2C(=O)C1O (stereo not given) | > 50 |
| COc1cccc(-c2nc3ccccc3c(=O)[nH]2)c1 | 88.9 |
| Cc1ccc(Cc2n[nH]c(=O)[nH]2)cc1 | > 100 |
| C/C=C/C(C#N)(/C=C/c1ccccc1)OP1(=O)OC(c2ccccc2)C(C)N1C (stereo not given) | 31 |
| S=C(N1CCN(c2ccc(Cl)c(Cl)c2)CC1)N1CCN(c2ccc(Cl)c(Cl)c2)CC1 | 22.2 |
| CCOC(=O)c1c(SC(=O)c2ccc(C(C)(C)C)cc2)n(-c2ccccc2)c(=S)n(-c2ccccc2)c1=O | > 100 |
| CC1OC(OC2C(O[C@H]3CC[C@@H]4C(=CC[C@@H]5[C@@]4(C)C(=O)C[C@]4(C)[C@@H]([C@H](C)CC[C@@H](O)C(C)(C)O)CC[C@@]54C)C3(C)C)OC(CO)C(O)C2O)C(O)C(O)C1O (stereo not given in full) | > 100 |
| Cc1ccc(-c2n[nH]c(Cc3nc(-c4ccc(C)cc4)n[nH]3)n2)cc1 | > 100 |
| Cc1nnc2n1N=C(c1ccccc1)/C(=C/c1ccc(-c3ccc(Cl)cc3)o1)S2 | 49.9 |
| COC1(c2ccc(Cl)cc2)SC=C(C)n2c1noc2=O (stereo not given) | > 100 |
| N=C(N)c1ccc(/C=C/c2ccc(C(=N)N)cc2)cc1 | > 100 |
| NC1CC(=O)c2cscc21 (stereo not given) | > 100 |
| CC(=O)Oc1c(C)c2c(c3ncccc13)OC(C)C2 (stereo not given) | 28.5 |
| COc1c2c(cc3c1C(=O)c1c(O)cccc1C3=O)CC(O)CC2 (stereo not given) | 46.5 |

system: OVCAR-8 ovarian; assay: NCI anticancer screen, dose series, 48 h

| Compound | TGI [µM] |
| --- | --- |
| Cc1ccc(N=N/C(=N/NC(=O)c2cc(Cl)ccc2O)c2ccc(N(CCC#N)CCC#N)cc2C)cc1 | 54.7 |
| Cc1ccc2c(c1)[nH]c(=S)n2C=C(C(N)=O)C(N)=O | > 100 |
| O=C1C=Cc2c(Br)sc(Br)c21 | > 100 |
| CN(C)CCNc1ccc([N+](=O)[O-])c2sc3ccccc3c(=O)c12 | 19.9 |
| O=C(C1OC1c1ccc(Cl)cc1)C12CC3CC(CC(C3)C1)C2 (stereo not given) | 32.9 |
| NC1c2c(Br)sc(N3CCCC3)c2C(=O)C1O (stereo not given) | > 50 |
| COc1cccc(-c2nc3ccccc3c(=O)[nH]2)c1 | > 100 |
| Cc1ccc(Cc2n[nH]c(=O)[nH]2)cc1 | > 100 |
| C/C=C/C(C#N)(/C=C/c1ccccc1)OP1(=O)OC(c2ccccc2)C(C)N1C (stereo not given) | 35.5 |
| S=C(N1CCN(c2ccc(Cl)c(Cl)c2)CC1)N1CCN(c2ccc(Cl)c(Cl)c2)CC1 | 28.3 |
| CCOC(=O)c1c(SC(=O)c2ccc(C(C)(C)C)cc2)n(-c2ccccc2)c(=S)n(-c2ccccc2)c1=O | > 100 |
| CC1OC(OC2C(O[C@H]3CC[C@@H]4C(=CC[C@@H]5[C@@]4(C)C(=O)C[C@]4(C)[C@@H]([C@H](C)CC[C@@H](O)C(C)(C)O)CC[C@@]54C)C3(C)C)OC(CO)C(O)C2O)C(O)C(O)C1O (stereo not given in full) | > 100 |
| Cc1ccc(-c2n[nH]c(Cc3nc(-c4ccc(C)cc4)n[nH]3)n2)cc1 | > 100 |
| N=C(N)c1ccc(/C=C/c2ccc(C(=N)N)cc2)cc1 | > 100 |
| NC1CC(=O)c2cscc21 (stereo not given) | > 100 |
| CC(=O)Oc1c(C)c2c(c3ncccc13)OC(C)C2 (stereo not given) | 27.5 |
| COc1c2c(cc3c1C(=O)c1c(O)cccc1C3=O)CC(O)CC2 (stereo not given) | > 100 |

system: RPMI-8226 leukemia; assay: NCI anticancer screen, dose series, 48 h

| Compound | TGI [µM] |
| --- | --- |
| Cc1ccc(N=N/C(=N/NC(=O)c2cc(Cl)ccc2O)c2ccc(N(CCC#N)CCC#N)cc2C)cc1 | > 100 |
| O=C1C=Cc2c(Br)sc(Br)c21 | 46.3 |
| CN(C)CCNc1ccc([N+](=O)[O-])c2sc3ccccc3c(=O)c12 | 7.52 |
| CN1Cc2ccccc2S(=O)(=O)n2cccc2C1=O | > 100 |
| C/C=C/C(C#N)(/C=C/c1ccccc1)OP1(=O)OC(c2ccccc2)C(C)N1C (stereo not given) | 40 |
| S=C(N1CCN(c2ccc(Cl)c(Cl)c2)CC1)N1CCN(c2ccc(Cl)c(Cl)c2)CC1 | 39.4 |
| Cc1ccc(-c2n[nH]c(Cc3nc(-c4ccc(C)cc4)n[nH]3)n2)cc1 | > 100 |
| Cc1nnc2n1N=C(c1ccccc1)/C(=C/c1ccc(-c3ccc(Cl)cc3)o1)S2 | 26.8 |
| COC1(c2ccc(Cl)cc2)SC=C(C)n2c1noc2=O (stereo not given) | > 100 |
| NC1CC(=O)c2cscc21 (stereo not given) | > 100 |
| CC(=O)Oc1c(C)c2c(c3ncccc13)OC(C)C2 (stereo not given) | 45.1 |

system: MOLT-4 leukemia; assay: NCI anticancer screen, dose series, 48 h

| Compound | TGI [µM] |
| --- | --- |
| Cc1ccc(N=N/C(=N/NC(=O)c2cc(Cl)ccc2O)c2ccc(N(CCC#N)CCC#N)cc2C)cc1 | > 100 |
| O=C1C=Cc2c(Br)sc(Br)c21 | 36.8 |
| CN(C)CCNc1ccc([N+](=O)[O-])c2sc3ccccc3c(=O)c12 | > 100 |
| CN1Cc2ccccc2S(=O)(=O)n2cccc2C1=O | > 100 |
| O=C(C1OC1c1ccc(Cl)cc1)C12CC3CC(CC(C3)C1)C2 (stereo not given) | 51.9 |
| NC1c2c(Br)sc(N3CCCC3)c2C(=O)C1O (stereo not given) | > 50 |
| COc1cccc(-c2nc3ccccc3c(=O)[nH]2)c1 | > 100 |
| Cc1ccc(Cc2n[nH]c(=O)[nH]2)cc1 | > 100 |
| C/C=C/C(C#N)(/C=C/c1ccccc1)OP1(=O)OC(c2ccccc2)C(C)N1C (stereo not given) | 28.8 |
| S=C(N1CCN(c2ccc(Cl)c(Cl)c2)CC1)N1CCN(c2ccc(Cl)c(Cl)c2)CC1 | 19.9 |
| CCOC(=O)c1c(SC(=O)c2ccc(C(C)(C)C)cc2)n(-c2ccccc2)c(=S)n(-c2ccccc2)c1=O | > 100 |
| CC1OC(OC2C(O[C@H]3CC[C@@H]4C(=CC[C@@H]5[C@@]4(C)C(=O)C[C@]4(C)[C@@H]([C@H](C)CC[C@@H](O)C(C)(C)O)CC[C@@]54C)C3(C)C)OC(CO)C(O)C2O)C(O)C(O)C1O (stereo not given in full) | > 100 |
| Cc1ccc(-c2n[nH]c(Cc3nc(-c4ccc(C)cc4)n[nH]3)n2)cc1 | > 100 |
| Cc1nnc2n1N=C(c1ccccc1)/C(=C/c1ccc(-c3ccc(Cl)cc3)o1)S2 | 23 |
| COC1(c2ccc(Cl)cc2)SC=C(C)n2c1noc2=O (stereo not given) | > 100 |
| N=C(N)c1ccc(/C=C/c2ccc(C(=N)N)cc2)cc1 | > 100 |
| NC1CC(=O)c2cscc21 (stereo not given) | > 100 |
| CC(=O)Oc1c(C)c2c(c3ncccc13)OC(C)C2 (stereo not given) | 25.9 |
| COc1c2c(cc3c1C(=O)c1c(O)cccc1C3=O)CC(O)CC2 (stereo not given) | > 100 |

system: K-562 leukemia; assay: NCI anticancer screen, dose series, 48 h

| Compound | TGI [µM] |
| --- | --- |
| Cc1ccc(N=N/C(=N/NC(=O)c2cc(Cl)ccc2O)c2ccc(N(CCC#N)CCC#N)cc2C)cc1 | > 100 |
| O=C1C=Cc2c(Br)sc(Br)c21 | 54.5 |
| CN(C)CCNc1ccc([N+](=O)[O-])c2sc3ccccc3c(=O)c12 | > 100 |
| CN1Cc2ccccc2S(=O)(=O)n2cccc2C1=O | > 100 |
| O=C(C1OC1c1ccc(Cl)cc1)C12CC3CC(CC(C3)C1)C2 (stereo not given) | 51.2 |
| NC1c2c(Br)sc(N3CCCC3)c2C(=O)C1O (stereo not given) | > 50 |
| COc1cccc(-c2nc3ccccc3c(=O)[nH]2)c1 | > 100 |
| Cc1ccc(Cc2n[nH]c(=O)[nH]2)cc1 | > 100 |
| C/C=C/C(C#N)(/C=C/c1ccccc1)OP1(=O)OC(c2ccccc2)C(C)N1C (stereo not given) | 39.3 |
| S=C(N1CCN(c2ccc(Cl)c(Cl)c2)CC1)N1CCN(c2ccc(Cl)c(Cl)c2)CC1 | 26.7 |
| CCOC(=O)c1c(SC(=O)c2ccc(C(C)(C)C)cc2)n(-c2ccccc2)c(=S)n(-c2ccccc2)c1=O | > 100 |
| CC1OC(OC2C(O[C@H]3CC[C@@H]4C(=CC[C@@H]5[C@@]4(C)C(=O)C[C@]4(C)[C@@H]([C@H](C)CC[C@@H](O)C(C)(C)O)CC[C@@]54C)C3(C)C)OC(CO)C(O)C2O)C(O)C(O)C1O (stereo not given in full) | > 100 |
| Cc1ccc(-c2n[nH]c(Cc3nc(-c4ccc(C)cc4)n[nH]3)n2)cc1 | > 100 |
| Cc1nnc2n1N=C(c1ccccc1)/C(=C/c1ccc(-c3ccc(Cl)cc3)o1)S2 | 47.4 |
| COC1(c2ccc(Cl)cc2)SC=C(C)n2c1noc2=O (stereo not given) | > 100 |
| N=C(N)c1ccc(/C=C/c2ccc(C(=N)N)cc2)cc1 | > 100 |
| NC1CC(=O)c2cscc21 (stereo not given) | > 100 |
